The subject of test [1] is Thrombin-stimulated Ca2+ response in HT-29 cells. The experiment in a line: Ca FLIPR TETRA assay, ANTAGONIST mode, stimulation with 1 U/mL Thrombin. In kind it is cell-based, human. As to conditions: Homo sapiens; HT-29 cells, antagonist mode, stimulation with 1 U/mL Thrombin. In outline: (§1)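 Antagonist-mode FLIPR Tetra Ca2+ readout: after 30 min r.t. compound pre-incubation, HT-29 cells are challenged with trypsin (3.1 U/mL final), SLIGKV (8 μM), thrombin (1 U/mL) or UTP (0.6 μM). Cells were plated overnight in 1% FBS medium and dye-loaded with Calcium 5; an initial read checks compound agonism.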

Test [2] deals with T1, PAR2 (HT-29 cells, trypsin activation) (Homo sapiens, UniProt P55085).
T1 construct: host or cells: HT-29 cells
T1 sequence (P55085 26-397): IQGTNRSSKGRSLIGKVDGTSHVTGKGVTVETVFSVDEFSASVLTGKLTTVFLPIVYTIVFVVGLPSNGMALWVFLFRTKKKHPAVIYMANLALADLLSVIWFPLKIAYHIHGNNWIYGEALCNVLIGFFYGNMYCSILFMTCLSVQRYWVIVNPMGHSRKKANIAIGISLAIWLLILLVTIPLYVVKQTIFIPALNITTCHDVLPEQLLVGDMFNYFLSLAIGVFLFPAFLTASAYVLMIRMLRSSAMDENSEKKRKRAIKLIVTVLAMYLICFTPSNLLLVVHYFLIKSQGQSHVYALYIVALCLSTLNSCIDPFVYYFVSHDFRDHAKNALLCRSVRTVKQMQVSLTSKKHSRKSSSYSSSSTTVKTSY
In words: Ca FLIPR TETRA assay, ANTAGONIST mode, stimulation with 3.1 U/mL trypsin. In kind it is cell-based. As to conditions: HT-29 cells, antagonist mode, stimulation with 3.1 U/mL trypsin. In outline:
as §1

Test [3] relates to UTP-stimulated Ca2+ response in HT-29 cells. The experiment in a line: Ca FLIPR TETRA assay, ANTAGONIST mode, stimulation with 0.6 μM UTP. In kind it is cell-based, human. Particulars: Homo sapiens; HT-29 cells, antagonist mode, stimulation with 0.6 μM UTP. In outline:
as §1

Test [4] concerns the target T2, PAR2 (HT-29 cells, SLIGKV activation) (Homo sapiens, UniProt P55085).
T2 construct: host or cells: HT-29 cells
T2 sequence (P55085 26-397): T1 sequence (P55085 26-397)
The experiment in a line: Ca FLIPR TETRA assay, ANTAGONIST mode, stimulation with 8 μM SLIGKV. In kind it is cell-based. As to conditions: HT-29 cells, antagonist mode, stimulation with 8 μM SLIGKV. In outline:
as §1

Experimental findings from patent US20190119282A1, “IMIDAZOPYRIDAZINES USEFUL AS INHIBITORS OF THE PAR-2 SIGNALING PATHWAY” (Vertex Pharmaceuticals Incorporated, priority 2013, published 2019) are described below.

pIC50: −log10 of the molar value.

With `Cc1cc(-c2cc(C(C)C)c3nc(C(=O)N4CCN(C(=O)c5ccn[nH]5)CC4(C)C)cn3n2)ccc1F` [Compound I-261], the pIC50 in test [1] was less than 6.00; in test [2] it was 8.19; in test [3] it was less than 6.00; in test [4], 8.46.

Turning to `Cc1cc(-c2cc(C(C)C)c3nc(C(=O)N4CCN(C(=O)c5ccncn5)CC4(C)C)cn3n2)ccc1F` [Compound I-262], the pIC50 was less than 6.00 in test [1], 7.84 in test [2], less than 6.00 in test [3] and 8.04 in test [4].

Consider `Cc1ccc(-c2cc(C(C)C)c3nc(C(=O)N4CCN(C(=O)[C@H]5C[C@@](O)(C(F)(F)F)C5)CC4(C)C)cn3n2)cc1` [Compound I-263], for which the pIC50 in test [1] is 6.66; in test [2] it was 8.14; in test [3], less than 6.00; in test [4], 8.19.

With `CC(C)c1cc(-c2ccc(F)c(F)c2)nn2cc(C(=O)N3CCN(C(=O)[C@H]4C[C@@](O)(C(F)(F)F)C4)CC3(C)C)nc12` [Compound I-264], the pIC50 in test [1] was less than 6.00; in test [2], 8.28; in test [3], less than 6.00; in test [4], 8.51.

`Cc1cc(-c2cc(C(C)C)c3nc(C(=O)N4CCN(C(=O)[C@H]5C[C@@](O)(C(F)(F)F)C5)CC4(C)C)cn3n2)ccc1F` [Compound I-265]: the pIC50 in test [1] was 6.24; in test [2], 8.25; in test [3] it was less than 6.00; in test [4] it was 8.41.

As for `CC(C)(C)c1cc(-c2ccc(F)cc2)nn2cc(C(=O)N3CCN(c4cscn4)C(=O)C3(C)C)nc12` [Compound I-266], the pIC50 in test [1] is less than 7.00; in test [2] it was 9.00; in test [3], less than 6.00; in test [4], 9.22.

Take `CC(C)(C)c1cc(-c2ccc(F)cc2)nn2cc(C(=O)N3CCN(CC#N)C(=O)C3(C)C)nc12` [Compound I-267]: the negative logarithm of the IC50 (pIC50) in test [1] is 6.25; in test [2] it was 8.70; in test [3], less than 6.00; in test [4] it was 8.85.

For the compound `CC1(C)CN(C(=O)c2ccncn2)CCN1C(=O)c1cn2nc(-c3ccc(F)cc3)cc(C(F)(F)F)c2n1` [Compound I-268], the pIC50 is less than 6.00 in test [1], 6.99 in test [2], less than 6.00 in test [3] and 7.19 in test [4].

For the compound `CC1(C)CN(C(=O)c2nc[nH]n2)CCN1C(=O)c1cn2nc(-c3ccc(F)cc3)cc(C(F)(F)F)c2n1` [Compound I-269], the negative-log IC50 (pIC50) in test [1] was less than 6.00; in test [2] it was 6.92; in test [3], less than 6.00; in test [4] it was 7.04.

As to `CC1(C)CN(C(=O)c2ncc[nH]2)CCN1C(=O)c1cn2nc(-c3ccc(F)cc3)cc(C(F)(F)F)c2n1` [Compound I-270], the pIC50 in test [1] was less than 6.00; in test [2], 7.15; in test [3], less than 6.00; in test [4], 7.32.

`CC1(C)CN(C(=O)c2ccn[nH]2)CCN1C(=O)c1cn2nc(-c3ccc(F)cc3)cc(C(F)(F)F)c2n1` [Compound I-271]: the pIC50 in test [1] was less than 6.00; in test [2], 7.52; in test [3], less than 6.00; in test [4], 7.88.

Take `CC1(C)CN(C(=O)C2CC(O)(C(F)(F)F)C2)CCN1C(=O)c1cn2nc(-c3ccc(F)cc3)cc(C(F)(F)F)c2n1` (stereo not shown) [Compound I-272]: the pIC50 in test [1] is less than 6.00; in test [2], 8.60; in test [3], less than 6.00; in test [4], 8.82.

On to `CC(C)c1cc(-c2ccc(C(F)(F)F)c(F)c2)nn2cc(C(=O)N3CCNC(=O)C3(C)C)nc12` [Compound I-273], for which the pIC50 was less than 6.00 in test [1], 8.92 in test [2], less than 6.00 in test [3] and 9.15 in test [4].

With `CC(C)c1cc(-c2ccc(F)cc2)nn2cc(C(=O)N3CCN(C#N)C(=O)C3(C)C)nc12` [Compound I-274], the pIC50 in test [1] is less than 6.00; in test [2], 8.34; in test [3], less than 6.00; in test [4], 8.59.

`CC(C)c1cc(-c2ccc(F)cc2)nn2cc(C(=O)N3CCN(c4nn[nH]n4)C(=O)C3(C)C)nc12` [Compound I-275]: the pIC50 is less than 6.00 in test [1], 7.78 in test [2], less than 6.00 in test [3] and 8.01 in test [4].

Consider `CC(C)c1cc(-c2ccc(C(F)(F)F)c(F)c2)nn2cc(C(=O)N3CCN(C(=O)[C@H]4C[C@](O)(C(F)(F)F)C4)CC3(C)C)nc12` [Compound I-276], for which the pIC50 in test [1] is less than 6.00; in test [2] it was 9.40; in test [3], less than 6.00; in test [4], 9.40.

As for `CC(C)c1cc(-c2ccc(C(F)(F)F)c(F)c2)nn2cc(C(=O)N3CCN(C(=O)c4ccn[nH]4)CC3(C)C)nc12` [Compound I-277], the pIC50 in test [1] was less than 6.00; in test [2], 8.89; in test [3] it was less than 6.00; in test [4] it was 8.89.

With `CC(C)c1cc(-c2ccc(C(F)(F)F)c(F)c2)nn2cc(C(=O)N3CCN(C(=O)c4ccncn4)CC3(C)C)nc12` [Compound I-278], the pIC50 in test [1] is less than 6.00; in test [2] it was 8.55; in test [3], less than 6.00; in test [4], 8.68.

Take `CC(C)c1cc(-c2ccc(C(F)(F)F)cc2)nn2cc(C(=O)N3CCN(C(=O)c4nc[nH]n4)CC3(C)C)nc12` [Compound I-279]: the pIC50 in test [1] is less than 6.00; in test [2] it was 8.34; in test [3], less than 6.00; in test [4] it was 8.48.

Take `Cc1nnc(C(=O)N2CCN(C(=O)c3cn4nc(-c5ccc(C(F)(F)F)cc5)cc(C(C)C)c4n3)C(C)(C)C2)o1` [Compound I-280]: the pIC50 in test [1] was less than 6.00; in test [2], 8.22; in test [3], less than 6.00; in test [4], 8.02.

For the compound `CC(C)c1cc(-c2ccc(C(F)(F)F)cc2)nn2cc(C(=O)N3CCN(C(=O)c4ccccn4)CC3(C)C)nc12` [Compound I-281], the pIC50 in test [1] was less than 6.00; in test [2], 8.44; in test [3] it was less than 6.00; in test [4], 8.60.

For `CC(C)c1cc(-c2ccc(C(F)(F)F)cc2)nn2cc(C(=O)N3CCN(C(=O)c4cccnn4)CC3(C)C)nc12` [Compound I-282], the pIC50 was less than 6.00 in test [1], 7.85 in test [2], less than 6.00 in test [3] and 7.80 in test [4].

As to `CC(C)(C)c1cc(-c2ccc(F)cc2)nn2cc(C(=O)N3CCN(C(=O)c4ccccn4)CC3(C)C)nc12` [Compound I-284], the negative logarithm of the IC50 (pIC50) was less than 6.00 in test [1], 8.85 in test [2], less than 6.00 in test [3] and 9.00 in test [4].

Take `CC(C)(C)c1cc(-c2ccc(F)cc2)nn2cc(C(=O)N3CCN(C(=O)c4ncccn4)CC3(C)C)nc12` [Compound I-285]: the pIC50 in test [1] was 6.19; in test [2], 8.59; in test [3], less than 6.00; in test [4], 8.74.

Regarding `CC(C)(C)c1cc(-c2ccc(F)cc2)nn2cc(C(=O)N3CCN(C(=O)c4ccncc4)CC3(C)C)nc12` [Compound I-286], the pIC50 in test [1] is 6.08; in test [2] it was 8.41; in test [3] it was less than 6.00; in test [4], 8.57.

`CC(C)(C)c1cc(-c2ccc(F)cc2)nn2cc(C(=O)N3CCN(C(=O)c4cccnc4)CC3(C)C)nc12` [Compound I-287]: the pIC50 is 6.20 in test [1], 8.55 in test [2], 6.01 in test [3] and 8.70 in test [4].

Regarding `CC(C)(O)CC(=O)N1CCN(C(=O)c2cn3nc(-c4ccc(F)cc4)cc(C(C)(C)C)c3n2)C(C)(C)C1` [Compound I-289], the pIC50 is 6.37 in test [1], 8.60 in test [2], 6.27 in test [3] and 8.82 in test [4].

For `Cc1cn[nH]c1C(=O)N1CCN(C(=O)c2cn3nc(-c4ccc(F)cc4)cc(C(C)(C)C)c3n2)C(C)(C)C1` [Compound I-290], the pIC50 is 6.28 in test [1], 8.51 in test [2], 6.14 in test [3] and 8.47 in test [4].

For the compound `Cc1n[nH]cc1C(=O)N1CCN(C(=O)c2cn3nc(-c4ccc(F)cc4)cc(C(C)(C)C)c3n2)C(C)(C)C1` [Compound I-292], the pIC50 in test [1] was less than 6.00; in test [2], 8.66; in test [3], less than 6.00; in test [4] it was 8.62.

Regarding `CC(C)c1cc(-c2ccc(C(F)F)cc2)nn2cc(C(=O)N3CCN(C(=O)c4ccn[nH]4)CC3(C)C)nc12` [Compound I-293], the pIC50 in test [1] was less than 6.00; in test [2], 8.03; in test [3], less than 6.00; in test [4], 8.18.

For `CC(C)c1cc(-c2ccc(C(F)F)cc2)nn2cc(C(=O)N3CCN(C(=O)c4nc[nH]n4)CC3(C)C)nc12` [Compound I-294], the pIC50 was less than 6.00 in test [1], 7.86 in test [2], less than 6.00 in test [3] and 8.06 in test [4].

Usually pIC50 stands for −log10 of the IC50, conventionally taken in molar units.
